Laboratory results published in patent US11491155B2, “Salt of a pyrimido[6,1-A]isoquinolin-4-one compound” (VERONA PHARMA PLC, priority 2015, dated 2022).
Counter-ions that a name gives are not always drawn.

What was measured:
[1] = Physico-chemical characteristics of salt candidates: solubility in water, pH of aqueous suspension/solution, form post water maturation
Protocol: The physico-chemical characteristics of the salt candidates were determined.

[2] = Thermal manipulation (isothermal 105° C., thermal cycle; TGA/DSC/XRPD); format: physicochemical
Protocol: Differential Scanning calorimetry (DSC)—DSC data were collected on a PerkinElmer Pyris 4000 DSC equipped with a 45 position sample holder. The instrument was verified for energy and temperature calibration using certified indium. A predefined amount of the sample, 0.5-3.0 mg, was placed in a pin holed aluminium pan and heated at 20° C.·min^−1 from 30 to 350° C., or varied as experimentation dictated. A purge of dry nitrogen at 60 ml·min^−1 was maintained over the sample. The instrument control, data acquisition and analysis were performed with Pyris Software v9.0.1.0203.
Thermo-Gravimetric Analysis (TGA)—TGA data were collected on a PerkinElmer Pyris 1 TGA equipped with a 20 position auto-sampler. The instrument was calibrated using a certified weight and certified Alumel and Perkalloy for temperature. A predefined amount of the sample, 1-5 mg, was loaded onto a pre-tared aluminium crucible and was heated at 20° C.·min^−1 from ambient temperature to 400° C. A nitrogen purge at 20 ml·min^−1 was maintained over the sample. The instrument control, data acquisition and analysis were performed with Pyris Software v9.0.1.0203.
(§1) The nature of the hydration and a preliminary examination of salt robustness/polymorphism was assessed by thermal manipulation using ThermoGravimetric Analysis (TGA) and Gravimetric Vapor Soprtion (GVS).

[3] = Behaviour to humidity by Gravimetric Vapour Sorption (GVS); format: physicochemical; conditions: for Behaviour to humidity: GVS, 0-90% humidity, 25° C.; for water adsorbed: up to 90% humidity
Protocol: Gravimetric Vapour Sorption—Sorption isotherms were obtained using a Hiden Isochema moisture sorption analyser (model IGAsorp), controlled by IGAsorp Systems Software V6.50.48. The sample was maintained at a constant temperature (25° C.) by the instrument controls. The humidity was controlled by mixing streams of dry and wet nitrogen, with a total flow of 250 ml·min^−1. The instrument was verified for relative humidity content by measuring three calibrated Rotronic salt solutions (10-50-88%). The weight change of the sample was monitored as a function of humidity by a microbalance (accuracy+/−0.005 mg). A defined amount of sample was placed in a tared mesh stainless steel basket under ambient conditions. A full experimental cycle typically consisted of three scans (sorption, desorption and sorption) at a constant temperature (25° C.) and 10% RH intervals over a 0-90% range (60 minutes for each humidity level).
as §1

[4] = Stability assessment of RPL554 and salts: lactose powder blends (70° C., seven days); format: physicochemical; conditions: after storage at both room and elevated (70° C.) temperatures, 7 days
Protocol: A validated HPLC method (Onyx-Scientific, Final product testing monograph for RPL554) for the determination of chemical purity by HPLC was used.
The following chromatography conditions were used: Column: Waters X Bridge phenyl, 3.5 μm, 150×4.6 mm, (Part number 186003335); Diluent: Acetonitrile:Water (50:50, v/v); Mobile Phase: A—Purified Water:Trifluoroacetic acid (100:0.1); B—Acetonitrile:Trifluoroacetic acid (100:0.1); Flow Rate: 1.0 mL/min; Injection Volume: 10 μl; Detection: UV @ 254 nm; Column Temperature: 30° C.; Post Run: 5 min; Gradient: [Time (min): % A:% B]: [0: 95:5], [2: 95:5]; [15: 5:95], [20: 5:95], [22: 95:5].
Samples of 1% w/w RPL554 free base or salt variants: lactose blends were prepared and stored at elevated temperature (70° C.) for seven days, control samples were stored at ambient conditions and protected from light on the laboratory bench. All samples (approximately 0.5 g) were accurately weighed into screw cap glass scintillation vials (20 mL). For storage at elevated temperature samples were placed in an oven at 70° C. protected from light. Control sample vials were capped, protected from light and stored on the bench for 7 days.
In addition, to the RPL554 and salt variant blends, samples of lactose alone were also stored at the elevated temperature condition (control samples at ambient). The lactose only samples served as baseline data for the HPLC analysis. […]

[5] = listed as hydrochloride salt, hydrochloride
[6] = listed as ethane-1,2-disulfonate salt

For `COc1cc2c(cc1OC)-c1c/c(=N\c3c(C)cc(C)cc3C)n(CCNC(N)=O)c(=O)n1CC2` [Hydrochloride, RPL554 hydrochloride], the “pH of aqueous suspension/solution” value ([1]; listed as Hydrochloric anhydrous source, hydrochloride) was 3.68, the “pH of aqueous suspension/solution” value ([1]; listed as Hydrochloric aqueous source, hydrochloride) was 3.84 and the “form change by thermal manipulation” value ([2]; below the melt endotherm) was “No form change was detected”. For the same compound, the Thermal cycle ([2]; hydrochloride) was “Stable form”, the Behaviour to humidity [3, 5] was “reversible adsorption and desorption over the humidity range with no hysteresis” and the water adsorbed [3, 5] was “up to 2 mole equivalents”.
In the case of `COc1cc2c(cc1OC)-c1c/c(=N\c3c(C)cc(C)cc3C)n(CCNC(N)=O)c(=O)n1CC2` [Sulfate, RPL554 sulfate], the “pH of aqueous suspension/solution” value ([1]; listed as Sulfuric - aqueous solution) is reported as 1.87 and the “peak area of the RPL554, % of the total areas” value [4] is reported as 82%.
For `COc1cc2c(cc1OC)-c1c/c(=N\c3c(C)cc(C)cc3C)n(CCNC(N)=O)c(=O)n1CC2` [Ethane-1,2-disulfonate, RPL554 ethane-1,2-disulfonate], the “pH of aqueous suspension/solution” value ([1]; listed as Ethane-1,2-disulfonic) was 3.72, the Behaviour to humidity [3, 6] was “reversible adsorption and desorption over the humidity range with no hysteresis” and the water uptake ([3]; to 50% humidity) was 4 mole equivalents. For the same compound, the water adsorbed [3, 6] was “up to 5 mole equivalents”.
